Values joined by “and” are separate entries in the source; they are usually repeats but may differ in a detail not shown here. Equal values may be shown once. Peptide text beside a SMILES is read from it.
Legend:
bacterial burden = assay: Survival study with rabbit PJI model; assay type: in vivo; details: for survival rates of rabbits as a function of days post-infection: observed up to 14 days (Group 4: 28 days)
Description: In the following Examples 1-5, the administered WLBU-2 formulations were prepared as described in this paragraph. Exemplary pharmaceutical formulations comprising WLBU-2 were prepared at concentrations of 0.5 mg/mL and 1.0 mg/mL in vehicle (dPBS), by formulating under aseptic conditions. WLBU-2 was added while mixing to approximately 90% of volume with vehicle, and mixed until the solution was clear. The solution was adjusted to pH 7.4 using a 1% NaOH solution. dPBS was added quantity sufficient to final volume. The final pH of the solution was read and recorded.
This example illustrates the antibacterial activity an exemplary formulation of WLBU-2, beta lactam antibiotic, and in combination in reducing CFU in vivo with varying concentrations and time of exposure.
A bone tunnel in the tibial canal was created using a drill with a 1.2 mm or 1.6 mm tungsten carbide drill bit. The bone tunnel was then dried and treated to simulate acute human PJI following primary arthroplasty. A Kirschner wire implant was placed in the bone tunnel and the wound closed. Prior to closure of the superficial skin layer, 0.1 mL of 2×10^6 planktonic bacteria (CFU/rabbit) in saline was injected into the joint space. A closure was performed, and a biofilm was allowed to become established over a period of 2 days.
In each group, the joint space was reopened and treated with I&D at 2 days post-infection. Group 1 received neither cefazolin nor WLBU-2. Group 2 received cefazolin but not WLBU-2. Group 3 received WLBU-2 but not the cefazolin. Group 4 received both cefazolin and WLBU-2 treatment. Where applicable, cefazolin was delivered subcutaneously at 10 mg/kg BID for 5 days. Where applicable, WLBU-2 was delivered with 2 ml of WLBU-2 at 1 mg/ml with exposure of 15 minutes. […] When an animal was sick or needed to be euthanized, the implant and a part of the tibia was collected postmortem and CFU analysis was performed. All surviving animals (except for Group 4) were euthanized on day 14 and the implant and tibia were collected most mortem.

S. aureus = assay: MIC, CLSI protocol, planktonic ESKAPE pathogens; assay type: cell-based, Staphylococcus aureus; details: N=4
Description: (§1) Standard Clinical and Laboratory Standards Institute (CLSI) protocol was used to measure the minimum inhibitory concentration (MIC) against each organism. Biofilm model: Implant material was prepared from 0.6 mm diameter stainless steel Kirschner wire and plated at 0.5×10^6 CFU/ml. Mature biofilm developed over 48 hours, wires were washed, and then treated with 1 mg/mL WLBU-2 (SEQ ID: 10) in PBS (pH 7.4) for 5, 15, and 30 minutes. Quantitative culture (colony forming unit, CFU) analysis was then completed.
(§2) ESKAPE pathogens were selected from a large clinical library of MDR and non-MDR organisms (n>100 organism). […] At 15 minutes, organisms had greater than a 3 log reduction in biofilm mass (E. faecium: 3 log 10; S. aureus: 5 log 10; K. pneumoniae 6 log 10; A. baumannii 5 log 10; P. aeruginosa 8 log 10; E. cloacae 7 log 10; E. coli 5 log 10).

E. cloacae = assay: MIC, CLSI protocol, planktonic ESKAPE pathogens; assay type: cell-based; details: N=2
Description: as §1, §2

A. baumannii = assay: MIC, CLSI protocol, planktonic ESKAPE pathogens; assay type: cell-based, Acinetobacter baumannii; details: N=24
Description: as §1, §2

E. coli [1] = assay: MIC, CLSI protocol, planktonic ESKAPE pathogens; assay type: cell-based; details: N=8
Description: as §1, §2

K. pneumoniae = assay: MIC, CLSI protocol, planktonic ESKAPE pathogens; assay type: cell-based, Klebsiella pneumoniae; details: N=8
Description: as §1, §2

[2] = Local or systemic toxicity in animal models; assay type: in vivo
[3] = system: gram-positive and gram-negative bacteria on infected prostheses; assay: Human patient knee explant study (Example 5), ex vivo CFU analysis, all implants; assay type: cell-based; details: 1 mg/mL in dPBS pH 7.4, 15 minutes; vs untreated implant of same patient
Description: (§3) Patients diagnosed with chronic PJI were prospectively enrolled (n=17). All patients met the diagnosis of PJI as defined by the 2018 International Consensus Meeting criteria. The implant was first washed with 50 ml Dulbecco's PBS (dPBS) and submerged ex vivo in an expected clinical exposure of 1 mg/mL WLBU-2 (SEQ ID: 10) in Dulbecco's PBS (dPBS) adjusted to pH 7.4 for 15 minutes. After treatment, the sample was washed with 50 mL of dPBS and sonicated in PBS containing 1% Tween 20 for 5 minutes. After sonication, 100 microliters of the implant sonication fluid was serially diluted, and plated for quantitative culture (CFU analysis). The remaining explanted implant from the same patient served as a control and was processed similarly but without exposure to WLBU-2 (SEQ ID: 10).

S. hemolyticus = assay: Human patient knee explant study (Example 5), ex vivo CFU analysis; assay type: cell-based; details: treated vs untreated explant of same patient, 1 mg/mL, 15 minutes
Description: as §3

S. aureus (MRSA) = assay: as above; assay type: cell-based; details: treated vs untreated explant of same patient, 1 mg/mL, 15 minutes
Description: as §3

S. caprae = assay: as above; assay type: cell-based; details: treated vs untreated explant of same patient, 1 mg/mL, 15 minutes
Description: as §3

S. aureus (MSSA) = assay: as above; assay type: cell-based; details: treated vs untreated explant of same patient, 1 mg/mL, 15 minutes
Description: as §3

E. faecalis = assay: as above; assay type: cell-based; details: treated vs untreated explant of same patient, 1 mg/mL, 15 minutes
Description: as §3

[4] = system: Haemophilus parainfluenzae; assay: as above; assay type: cell-based; details: treated vs untreated explant of same patient, 1 mg/mL, 15 minutes
Description: as §3

E. coli [5] = assay: as above; assay type: cell-based; details: treated vs untreated explant of same patient, 1 mg/mL, 15 minutes
Description: as §3

S. dysgalactiae = assay: as above; assay type: cell-based; details: treated vs untreated explant of same patient, 1 mg/mL, 15 minutes
Description: as §3

P. aeruginosa = assay: MIC, CLSI protocol, planktonic ESKAPE pathogens; assay type: cell-based, Pseudomonas aeruginosa; details: N=20
Description: as §1, §2

[6] = cefazolin 10 mg/kg sc BID 5 days and/or WLBU-2 2 ml at 1 mg/ml 15 minutes, vs untreated Group 1
[7] = cefazolin 10 mg/kg sc BID 5 days and/or WLBU-2 2 ml at 1 mg/ml 15 minutes, vs untreated Group 1, listed as cefazolin

Cc1nnc(SCC2=C(C(=O)O)N3C(=O)[C@@H](NC(=O)Cn4cnnn4)[C@H]3SC2)s1 [Cefazolin]
body weight as a function of days post infection (bacterial burden; I&D 2 days post-infection, cefazolin 10 mg/kg sc BID 5 days and/or WLBU-2 2 ml at 1 mg/ml 15 minutes): No significance
bacterial burden of collected implants (CFU analysis), reduction (bacterial burden; [6]): significantly lower bacterial burden
bacterial burden of collected tibia (bone CFU analysis), reduction (bacterial burden; [6]): 2.6 log
total CFU (implant and bone), reduction in total bacterial burden (bacterial burden; [6]): Significant reductions in total bacterial burden
bacterial burden of collected tibia (bone CFU analysis), reduction (bacterial burden; [7]): significantly lower bacterial burden
total CFU (implant and bone), reduction in total bacterial burden (bacterial burden; [7]): significantly lower bacterial burden
survival rates of rabbits as a function of days post-infection (bacterial burden; vs untreated Group 1): improved survival in comparison to Group 1
survival rates of rabbits as a function of days post-infection (bacterial burden; vs untreated Group 1, listed as cefazolin): second-best survival rates

C[C@@H](O)[C@H]1C(=O)N2C(C(=O)O)=C(SCCN=CN)C[C@H]12 [IPM, imipenem]
minimum inhibitory concentration (MIC) (S. aureus): .015-.03
minimum inhibitory concentration (MIC) (E. cloacae): 0.25

C[C@H]1COc2c(N3CCN(C)CC3)c(F)cc3c(=O)c(C(=O)O)cn1c23 [LVX, levofloxacin]
minimum inhibitory concentration (MIC) (S. aureus): .015-.03

CC(=O)NC[C@H]1CN(c2ccc(N3CCOCC3)c(F)c2)C(=O)O1 [LZD, linezolid]
minimum inhibitory concentration (MIC) (S. aureus): 4

CN(C)c1cc(NC(=O)CNC(C)(C)C)c(O)c2c1C[C@H]1C[C@H]3[C@H](N(C)C)C(O)=C(C(N)=O)C(=O)[C@@]3(O)C(O)=C1C2=O [TIG, tigecycline]
minimum inhibitory concentration (MIC) (A. baumannii): 1-16
minimum inhibitory concentration (MIC) (E. coli [1]): .25-0.5
minimum inhibitory concentration (MIC) (E. cloacae): 0.5-2
minimum inhibitory concentration (MIC) (K. pneumoniae): 0.5-2

CN[C@H](CC(C)C)C(=O)N[C@H]1C(=O)N[C@@H](CC(N)=O)C(=O)N[C@H]2C(=O)N[C@H]3C(=O)N[C@H](C(=O)N[C@H](C(=O)O)c4cc(O)cc(O)c4-c4cc3ccc4O)[C@H](O)c3ccc(c(Cl)c3)Oc3cc2cc(c3O[C@@H]2O[C@H](CO)[C@@H](O)[C@H](O)[C@H]2O[C@H]2C[C@](C)(N)[C@H](O)[C@H](C)O2)Oc2ccc(cc2Cl)[C@H]1O [VAN, vancomycin]
minimum inhibitory concentration (MIC) (S. aureus): 1

CC(C)[C@H](NC(=O)[C@H](Cc1c[nH]c2ccccc12)NC(=O)[C@H](CCCNC(=N)N)NC(=O)[C@H](CCCNC(=N)N)NC(=O)[C@@H](NC(=O)[C@@H](NC(=O)[C@H](CCCNC(=N)N)NC(=O)[C@@H](NC(=O)[C@@H](NC(=O)[C@H](CCCNC(=N)N)NC(=O)[C@H](CCCNC(=N)N)NC(=O)[C@H](Cc1c[nH]c2ccccc12)NC(=O)[C@@H](NC(=O)[C@H](CCCNC(=N)N)NC(=O)[C@H](CCCNC(=N)N)NC(=O)[C@@H](NC(=O)[C@H](CCCNC(=N)N)NC(=O)[C@H](CCCNC(=N)N)NC(=O)[C@@H](NC(=O)[C@H](Cc1c[nH]c2ccccc12)NC(=O)[C@H](CCCNC(=N)N)NC(=O)[C@@H](N)CCCNC(=N)N)C(C)C)C(C)C)C(C)C)C(C)C)C(C)C)C(C)C)C(C)C)C(=O)N[C@@H](CCCNC(=N)N)C(=O)N[C@@H](CCCNC(=N)N)C(=O)O [WLBU-2, RRWVRRVRRVWRRVVRVVRRWVRR] (H-RRWVRRVRRVWRRVVRVVRRWVRR-OH)
toxicity to local tissue ([2]; 1 mg/mL for 15 minutes, murine and rabbit PJI animal models): non-toxic to local tissue
local or systemic toxicity ([2]; therapeutic range of dosing in animal models): does not have significant local or systemic toxicity
mean log reduction [3]: 6 log
range of log reduction [3]: 2-7.70 log
Log reduction (S. hemolyticus): 2.9
Log reduction (S. aureus (MRSA)): 7.7
Log reduction (S. caprae): 7.7
Log reduction (S. aureus (MSSA)): 3.6
Log reduction (E. faecalis): 6.7
Log reduction [4]: 7.7
Log reduction (E. coli [5]): 6.2 and 5.9
Log reduction (S. dysgalactiae): 4.0

colistin
minimum inhibitory concentration (MIC) (P. aeruginosa): .12-2^
minimum inhibitory concentration (MIC) (E. coli [1]): .06-.25
minimum inhibitory concentration (MIC) (E. cloacae): .06-.25
minimum inhibitory concentration (MIC) (K. pneumoniae): .06-16

— US20240317809A1, “Engineered Antimicrobial Peptides and Usage Thereof” (University of Pittsburgh-Of the Commonwealth System of …, priority 2021, published 2024)
